Data on five compounds can be found in publication PMC9154793, “Design, synthesis, and biological evaluation of triazole-pyrimidine-methylbenzonitrile derivatives as dual A2A/A2B adenosine receptor antagonists” (Journal of Enzyme Inhibition and Medicinal Chemistry, 2022).

Like-named read-outs stand apart in the source and are kept apart here.

The target in one data set is T1, human A2B AR (Homo sapiens, UniProt P29275).
T1 sequence (P29275 1-332): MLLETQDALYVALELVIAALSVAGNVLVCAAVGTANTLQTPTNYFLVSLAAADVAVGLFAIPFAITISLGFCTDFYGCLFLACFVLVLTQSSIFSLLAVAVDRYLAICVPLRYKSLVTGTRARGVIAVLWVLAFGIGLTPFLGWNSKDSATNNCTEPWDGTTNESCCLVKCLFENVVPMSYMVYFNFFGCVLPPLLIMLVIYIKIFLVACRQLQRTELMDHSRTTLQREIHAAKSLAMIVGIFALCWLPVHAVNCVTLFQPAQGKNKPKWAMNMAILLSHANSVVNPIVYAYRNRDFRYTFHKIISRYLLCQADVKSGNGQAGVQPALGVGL
The data set can be described thus: cAMP functional assay in CHO-K1/ADORA2b/Gα15 cells (NECA-stimulated, HTRF). Type of data set: cell-based. A general note: In TR-FRET formats the signal depends on donor and acceptor labels being close together.

Data set [1] concerns the target T2, human A2A AR (Homo sapiens, UniProt P29274). The data set can be described thus: A2A AR radioligand binding assay ([3H]-ZM241385, HEK-293 cell membranes). On the procedure:
We further tested the IC50 values of compounds 7f, 7i, 17, 22, and AB928 in inhibiting the cAMP production of CHO cells expressing hA2A AR or hA2B AR (Table 2). […] In addition, the competitive binding experiments of compounds 7f, 7i, and AB928 were performed using membrane preparation of HEK-293 cells expressing human A2A AR (Table 3).
The target compounds were tested to evaluate their affinity for the A2A AR on HEK-293 cell membranes expressing human A2A AR. [^3H]-ZM241385 was used as a radioligand. The assay buffer (50 mM Tris-HCl, pH 7.4; 10 mM MgCl2; 1 mM EDTA; 1 μg/ml adenosine deaminase), wash buffer (50 mM Tris-HCl, pH 7.4; 154 mM NaCl), and 0.5% PEI solution were prepared and stored at 4 °C for use. The affinities were tested following the procedure reported by Hu et al[4].

Data set [2] can be described thus: Metabolic stability in rat liver microsomes. Type of data set: in vitro ADME, Sprague–Dawley rats. On the procedure:
(§1) The metabolic stability is an important focus for further compound optimisation. Compounds 7f, 7i, and AB928 were chosen to evaluate the stability in rat liver microsomes and human liver microsomes. For the microsomal metabolic experiment, 7-ethoxycoumarin (7-EC) was used as a control. As shown in Table 4 (see Supporting information for raw data), the CLint(liver) of 7-EC in rats and humans was 10.0 and 9.0 ml/min/g liver, respectively, indicating the experimental test system was reliable.
(§2) Metabolic stabilities of compounds 7f, 7i, and AB928 in liver microsomes were studied with pooled human (male) liver microsomes solution (20 mg/ml) and male Sprague–Dawley rats pooled liver microsomes solution (20 mg/ml) purchased from Research Institute for Liver Diseases (Shanghai) Co. Ltd. Both liver microsomes solutions (140 μl) were diluted by 3948 μl of water and 280 μl of phosphate buffered saline. The assay procedure: 640 μl of diluted liver microsomes solution was added to a solution of compound working solution (16 μl, 25 μM in DMSO) and the mixed solution was incubated at 37 °C for 5 min. Then 160 μl of NADPH generating system was added and take out 100 μl from the mixed solution was added 200 μl of acetonitrile solution to stop the reaction at the set incubation time (0 min, 10 min, 20 min, 30 min, 40 min, 50 min, and 60 min). All stopped reaction solutions were vortex mixed (3 min) and centrifuged (10,000 rpm, 4 °C for 10 min). Then 50 μl of the supernatant was analysed by UPLC-MS/MS system (details of the analytical method see Supporting information). […]
(§3) 8. Metabolic stability in human and rat liver microsomes
(§4) Metabolic stabilities of compounds 7f, 7i and AB928 in liver microsomes were studied with pooled human (male) liver microsomes solution (20 mg/mL) and male Sprague - Dawley rats pooled liver microsomes solution (20 mg/mL) purchased from Research Institute for Liver Diseases (Shanghai) Co. Ltd. Both liver microsomes solutions (140 μL) were diluted by 3948 μL of water and 280 μL of phosphate buffered saline. The assay procedure: 640 μL of diluted liver microsomes solution was added to a solution of compound working solution (16 μL, 25 μM in DMSO) and the mixed solution was […]
(§5) (1 picture or pasted object on this page, not shown here) […]
(§6) incubated at 37 ℃ for 5 min. Then 160 μL of NADPH generating system was added and take out 100 μL from the mixed solution was added 200 μL of acetonitrile solution to stop the reaction at the set incubation time (0 min, 10 min, 20 min, 30 min, 40 min, 50 min, and 60 min). All stopped reaction solutions were vortex mixed (3 min) and centrifuged (10000 rpm, 4 ℃ for 10 min). Then 50 μL of the supernatant was analyzed […]
(§7) 8.2 Chromatography and mass spectrometry conditions
(§8) UPLC was performed using an […] UPLC system (Waters, Milford, MA, […]
(§9) USA). Separation was achieved on a Waters BEH C18 column(100 mm × 2.1 mm， 1.7 μm) at 40 ℃. The injection volume of the sample solution was 5 μL. The mobile phase consisted of water (0.1% formic acid and ammonium acetate) and acetonitrile solution (20:80, v/v) at a flow rate of 0.4 mL/min within a running time of 6 min. Mass spectrometric analysis was performed on a Waters Xevo TQ-S triple quadrupole instrument using electrospray ionization in positive mode. Quantification was performed using multiple reaction monitoring (MRM) mode to monitor precursor-product ion transitions (Table S1).
(§10) Table S1. Conditions of MRM Detection. […]
(§11) Table S2. Raw data of metabolic stability in human and rat liver microsomes. […]
(§12) (min) Hum Rat Hum Rat Hum Rat Hum Rat
(§13) 9. Analytical method of pharmacokinetics assay
(§14) Animal experiments were performed according to the institutional ethical guidelines on animal care and approved by the Institute Animal Care and Use Committee at Binzhou […]
(§15) Female Bal b/c mice (sourced from Jinan Pengyue Experimental Animal Breeding […]
On the technique in general: Liver microsomes are vesicles of endoplasmic reticulum, rich in cytochrome P450 enzymes.

Data set [3] has as its target T2, human A2A AR. The data set can be described thus: cAMP functional assay in CHO-K1/ADORA2A/Gα15 cells (NECA-stimulated, HTRF).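 Note: inhibition of NECA-driven intracellular cAMP build-up in the A2A-expressing cells, quantified with cAMP-d2 plus Eu3+-labelled anti-cAMP detection reagent.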 In kind it is cell-based.
Method: (§16) In the cAMP assay, CHO-K1/ADORA2A/Gα15 cells expressing human A2A AR and CHO-K1/ADORA2b/Gα15 cells expressing human A2B AR were activated by 5′-(N-ethylcarboxamido)adenosine (NECA) and triggered the accumulation of intracellular cAMP concentration.
(§17) CHO-K1/ADORA2A/Gα15 cells expressing human A2A AR and CHO-K1/ADORA2b/Gα15 cells expressing human A2B AR were both constructed by Genscript Biotech Corporation. […] The test stock solutions were diluted with different gradients for use. The procedure was exemplified by the cAMP functional assay on the A2A receptor: 10,000 cells/well of CHO-K1/ADORA2A/Gα15 were seeded in a 384-well plate in 20 μl of assay buffer. […] Then, 10 μl of detection reagent (cAMP-d2 and anti-cAMP-Eu3+) was added into each well of the plate and incubated at room temperature for 1 h.
The nature of data set [4]: Metabolic stability in human liver microsomes. In kind it is in vitro ADME. As to conditions: human, microsomes. How it is done:
as §1, §2, §3, §4, §5, §6, §7, §8, §9, §10, §11, §12, §13, §14, §15

The mark [5] stands for this setting: CHO-K1, compound at 100 nM, relative to ZM241385 at 1 μM, mean ± SEM, read-out: hA2B AR (%) inhibition of cAMP, 100 nM.
[6] abbreviates: CHO-K1, compound at 10 nM, relative to ZM241385 at 1 μM, mean ± SEM, read-out: hA2A AR (%) inhibition of cAMP, 10 nM.
Setting [7] is: CHO-K1, compound at 100 nM, relative to ZM241385 at 1 μM, mean ± SEM, read-out: hA2A AR (%) inhibition of cAMP, 100 nM.
[8] abbreviates: CHO-K1, compound at 1000 nM, relative to ZM241385 at 1 μM, mean ± SEM, read-out: hA2A AR (%) inhibition of cAMP, 1000 nM.

T2 sequence (P29274 whole entry): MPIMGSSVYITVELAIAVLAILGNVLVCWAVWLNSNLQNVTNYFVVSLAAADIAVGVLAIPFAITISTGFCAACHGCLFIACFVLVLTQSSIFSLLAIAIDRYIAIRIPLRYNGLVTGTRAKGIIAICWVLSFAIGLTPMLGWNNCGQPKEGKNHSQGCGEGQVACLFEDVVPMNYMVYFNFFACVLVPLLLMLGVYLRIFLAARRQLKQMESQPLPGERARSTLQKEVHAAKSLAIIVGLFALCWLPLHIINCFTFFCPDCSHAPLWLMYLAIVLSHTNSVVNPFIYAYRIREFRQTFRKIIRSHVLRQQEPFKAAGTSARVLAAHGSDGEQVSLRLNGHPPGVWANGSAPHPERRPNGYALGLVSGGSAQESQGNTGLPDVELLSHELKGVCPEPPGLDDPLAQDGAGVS
Method for human A2B AR: as §16, §17

Broadly, the IC50 is the concentration that gives 50% inhibition. As a reminder, the inhibition is the relative decrease from the control value, in per cent. Regarding `Cc1c(C#N)cccc1-c1cc(-c2cn(Cc3cccc(C(C)(C)O)n3)nn2)nc(N)n1` [AB928, reference compound], the half-maximal inhibitory concentration (IC50) at human A2B AR turned out to be 25.5 ± 0.35 nM; at human A2A AR [1], 25.2 ± 0.74 nM; against human A2A AR [3], 2.75 ± 0.12 nM. Besides, the inhibition at 0.1 µM came out at 103 ± 1.04% on human A2B AR (CHO-K1, read-out: hA2B AR (%) inhibition of cAMP, 100 nM) and 96.8 ± 7.16% at human A2A AR [3] (CHO-K1, read-out: hA2A AR (%) inhibition of cAMP, 100 nM). Further, the share remaining at 10 min, 0.49 µM in data set [2] (male, Sprague-Dawley, pooled rat liver microsomes, rat liver microsomes, 10 min) turned out to be 74.7%; in data set [4] (male), 96.2%. For the same compound, the amount remaining at 20 min, 0.49 µM in data set [2] (male, Sprague-Dawley, pooled rat liver microsomes, rat liver microsomes, 20 min) amounted to 67.4%; in data set [4] (male) it was 104%. Moreover, the amount remaining at 0.5 h, 0.49 µM is 53.1% in data set [2] (male, Sprague-Dawley, pooled rat liver microsomes, rat liver microsomes, 30 min) and 97% in data set [4] (male). For the same compound, the amount remaining at 40 min, 0.49 µM in data set [2] (male, Sprague-Dawley, pooled rat liver microsomes, rat liver microsomes, 40 min) was 42.8%; in data set [4] (male) it was 91.8%. The share remaining at 50 min, 0.49 µM was found to be 35.6% in data set [2] (male, Sprague-Dawley, pooled rat liver microsomes, rat liver microsomes, 50 min) and 89% in data set [4] (male). Besides, the share remaining at 1 h, 0.49 µM amounted to 28.1% in data set [2] (male, Sprague-Dawley, pooled rat liver microsomes, rat liver microsomes, 60 min, read-out: Remaining (%, T = 60min) Rat) and 94.4% in data set [4] (male). Further, the half-life at 0.49 µM turned out to be 0.563 h in data set [2] (male, Sprague-Dawley, rat, pooled rat liver microsomes, read-out: T1/2 Rat) and 7.22 h in data set [4] (male). Further, in data set [2] (rat liver microsomes), the “CLint(liver) Rat” value is listed as 2.15 mL/min/g. Moreover, at human A2A AR [3] (CHO-K1, read-out: hA2A AR (%) inhibition of cAMP, 10 nM), the inhibition at 0.01 µM worked out at 20 ± 6.46%. At human A2A AR [3] (CHO-K1, read-out: hA2A AR (%) inhibition of cAMP, 1000 nM), the inhibition at 1 µM was 101 ± 5.55%. Further, the “CLint(liver) Hum” value in data set [4] was 0.17 mL/min/g.

A word on the melting point: it is the temperature, or range, at which the solid turns liquid. In the case of `CC(C)(O)c1cccc(Cn2cc(-c3cc(-c4cccc(CF)c4)nc(N)n3)nn2)n1` [Compound 22, 2-(6-((4-(2-amino-6-(3-(fluoromethyl)phenyl)pyrimidin-4-yl)-1H-1,2,3-triazol-1-yl)methyl)pyridin-2-yl)propan-2-ol], the melting point lay within 76 to 77 °C. Also, the IC50 on human A2B AR (CHO cells expressing hA2B AR, mean ± SEM, read-out: cAMP IC50 hA2B AR) amounted to 178 ± 9.89 nM. Further, the inhibition at 0.1 µM on human A2B AR (setting [5]) was determined as 19.9 ± 1.85%. In addition, the half-inhibitory concentration (IC50) at human A2A AR [3] (CHO cells expressing hA2A AR, mean ± SEM, read-out: cAMP IC50 hA2A AR) worked out at 67.2 ± 10.9 nM. The inhibition at 0.01 µM on human A2A AR [3] (setting [6]) was determined as 22.4 ± 11.9%. Moreover, at human A2A AR [3] (setting [7]), the inhibition at 0.1 µM stood at 94.7 ± 4.43%. In addition, on human A2A AR [3] (setting [8]), the inhibition at 1 µM amounted to 93.6 ± 2.76%. Also, the “fold less active than compound 7i (cAMP IC50, A2A receptor)” value on human A2A AR [3] (ratio of cAMP IC50 values vs 7i) came to 11 fold.

Compound `Cc1c(C#N)cccc1-c1cc(-c2cn(Cc3cccc(C(=O)O)n3)nn2)nc(N)n1` [Compound 7h, 6-((4-(2-amino-6–(3-cyano-2-methylphenyl)pyrimidin-4-yl)-1H-1,2,3-triazol-1-yl)methyl)picolinic acid] gave a melting point of 176 to 177 °C. The inhibition at 0.1 µM at human A2B AR (setting [5]) came to 54.8 ± 2.09%. Moreover, the inhibition at 0.01 µM on human A2A AR [3] (setting [6]) is 37.9 ± 2.32%. Moreover, the inhibition at 0.1 µM on human A2A AR [3] (setting [7]) worked out at 55.2 ± 4.27%. Moreover, the inhibition at 1 µM on human A2A AR [3] (setting [8]) amounted to 92.6 ± 1.91%.

For `Cc1c(C#N)cccc1-c1cc(-c2cn(Cc3cccc(C(=O)OC(C)C)n3)nn2)nc(N)n1` [Compound 7e, Isopropyl 6-((4-(2-amino-6-(3-cyano-2-methylphenyl)pyrimidin-4-yl)-1H-1,2,3-triazol-1-yl)methyl)picolinate], the melting point lay within 128 to 129 °C. Moreover, on human A2B AR (setting [5]), the inhibition at 0.1 µM was 82.5 ± 7.81%. Besides, the inhibition at 0.01 µM at human A2A AR [3] (setting [6]) came to 45 ± 1.25%. In addition, the inhibition at 0.1 µM at human A2A AR [3] (setting [7]) came out at 50.7 ± 5.51%. Besides, the inhibition at 1 µM on human A2A AR [3] (setting [8]) stood at 67.8 ± 4.91%.

Consider `Cc1c(C#N)cccc1-c1cc(-c2cn(Cc3cccc(C(=O)NCCO)n3)nn2)nc(N)n1` [Compound 7j, 6-((4-(2-Amino-6-(3-cyano-2-methylphenyl)pyrimidin-4-yl)-1H-1,2,3-triazol-1-yl)methyl)-N-(2-hydroxyethyl)picolinamide], for which the melting point was 208 to 209 °C. Besides, the inhibition at 0.1 µM at human A2B AR (setting [5]) was determined as 82.4 ± 4.52%. The inhibition at 0.01 µM on human A2A AR [3] (setting [6]) came to 22.4 ± 6.68%. Besides, the inhibition at 0.1 µM on human A2A AR [3] (setting [7]) turned out to be 82.2 ± 1.26%. The inhibition at 1 µM on human A2A AR [3] (setting [8]) amounted to 101 ± 4.62%.
